From US10842789B2, “Treatment of schizophrenia” (PIERRE FABRE MEDICAMENT, priority 2017, dated 2020)
Marks after values point to notes of the source that are not given here.

What was measured:
[1] = target: T1, human recombinant dopamine D2L receptor (Homo sapiens, UniProt P14416); test: [3H] spiperone binding, cells expressing human recombinant dopamine D2L receptors
T1 construct: expressed in transfected cells
Method: (§1) The activity of F17464 was evaluated at recombinant dopaminergic receptors in vitro for its profile at D2 and D3 receptor. […] F17464 was also evaluated for its agonist, partial agonist, or antagonist activity at the dopamine D3 receptor by using the MAP-kinase activity test on human recombinant dopamine D3 receptors (Cussac et al., Mol. Pharmacol. 1999, 56, 1025-1030).
(§2) As used herein, the term “selective D3 antagonist” refers to a D3 antagonist, as defined here above, that has more affinity for the D3 receptor than for the D2 receptor (D2S and/or D2L). Affinity of a compound for a receptor is usually expressed as a Ki value. Preferentially, the relative binding affinities are determined in competitive radioligand binding studies using cells expressing human recombinant dopamine D3, D2S or D2L receptors (Newman-Tancredi et al. British Journal of Pharmacology, 2007, 151, 237-252). More preferentially, it is defined in [^3H] spiperone binding studies using cells expressing human recombinant dopamine D3 receptors or human recombinant dopamine D2L or D2S receptors (Cussac et al. Naunyn-Schmiedeberg's Arch Pharmacol, 2000, 361, 569-572).

[2] = target: T2, human recombinant dopamine D2S receptor (Homo sapiens, UniProt P14416); test: [3H] spiperone binding, cells expressing human recombinant dopamine D2S receptors
T2 construct: expressed in transfected cells
T2 sequence (P14416 1-414 isoform P14416-2): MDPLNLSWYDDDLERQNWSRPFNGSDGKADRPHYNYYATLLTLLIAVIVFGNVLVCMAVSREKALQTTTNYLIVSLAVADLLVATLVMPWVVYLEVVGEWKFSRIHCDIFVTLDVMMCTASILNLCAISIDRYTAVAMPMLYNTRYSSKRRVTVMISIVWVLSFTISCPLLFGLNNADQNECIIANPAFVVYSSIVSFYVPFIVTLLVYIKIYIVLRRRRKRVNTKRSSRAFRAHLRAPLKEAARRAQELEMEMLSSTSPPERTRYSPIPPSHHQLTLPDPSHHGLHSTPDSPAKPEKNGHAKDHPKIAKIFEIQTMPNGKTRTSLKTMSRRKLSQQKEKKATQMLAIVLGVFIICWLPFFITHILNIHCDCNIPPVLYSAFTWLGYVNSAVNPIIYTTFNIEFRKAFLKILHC
Method: as §1, §2

[3] = tested on: patients with acute exacerbation of schizophrenia; test: Double-blind placebo-controlled phase II study, patients with acute exacerbation of schizophrenia; format: in vivo, human
Method: N-(3-{4-[4-(8-oxo-8H-[1,3]dioxolo[4,5-g]chromen-7-yl)-butyl]-piperazin-1-yl}-phenyl)-methanesulfonamide hydrochloride has been tested in a placebo-controlled study of patients with an acute exacerbation of schizophrenia.
This double-blind, parallel group, multicenter study included patients with acute exacerbation of schizophrenia treated either with F17464 fixed dose 40 mg (20 mg bid) or placebo (randomization 1:1) for 6 weeks as antipsychotic monotherapy. The primary objective was to evaluate the efficacy of F17464 in comparison to placebo. The primary efficacy criterion was the PANSS (Positive and Negative Syndrome Scale) total score change from baseline to Day 43 on the Full Analysis Set (FAS).
Inclusion criteria included a well-documented diagnosis of schizophrenia for a minimum of 1 year, and a recent acute exacerbation characterized by a PANSS total score at screening ≥70 and <120 with no significant change of the PANSS positive subscore between the screening and randomization visits; and Clinical Global Impression of Severity (CGI-S) score ≥4.
All patients had discontinued previous treatments within the week prior to administration of study medication.
Following screening, patients were maintained in hospital till the 3rd week of treatment. Patients who had CGI-I (Clinical Global Impression of Improvement) score of ≤3 after 3 or 4 weeks were then eligible for hospital discharge and could continue study participation as outpatients.
The PANSS scores of the tested patients were established each week.
Schizophrenia History: Before Screening Visit • Patient with a current primary diagnosis of schizophrenia undergoing an acute exacerbation with prominent “active phase” symptoms, as described by the Diagnostic and Statistical Manual of Mental Disorders, 4th edition—Text Revision (DSM IV-TR) using the MINI 6.0 (Mini-International Neuropsychiatric Interview) for schizophrenia and psychotic disorders related to DSM IV-TR; • For a minimum of 1 year, well-documented diagnosis with the first hospitalization for acute exacerbation of schizophrenia; • Since the diagnosis of schizophrenia, the average number of hospitalizations should be no higher than 2 per year (the minimum duration of hospitalization should be more than 4 days); • During the year before screening visit, maximum 3 acute psychotic episodes that required hospitalization or change of antipsychotic medication or other therapeutic intervention; • Adequate clinical response to well-conducted treatment courses during previous acute episodes. A well conducted treatment course is defined as an antipsychotic treatment with the usual doses for at least 4 weeks. Current Acute Episode: • Structured Clinical Interview for the Positive And Negative Syndrome Scale (SCI-PANSS) with a PANSS total score ≥70 to <120 (at screening and randomization visits); • Rating of at least 4 (moderate) on at least 2 of the following 4 PANSS positive symptoms: delusions, hallucinatory behavior, conceptual disorganization, suspiciousness/persecution; • Clinical Global Impression of Severity (CGI-S) score ≥4 (moderate or severe). • Antipsychotic initiated for this acute episode and/or ongoing chronic antipsychotic treatment, with a maximum of 2 antipsychotics in total needed to be changed (due to inefficacy or safety reasons); • Hospitalization and/or treatment for the current psychotic episode for less than 2 weeks prior to screening visit; • No significant improvement of PANSS total score between enrolment (screening visit) and inclusion (randomization visit) corresponding to a score improvement <20% on positive symptoms subscale. Examination: • Normal physical examination results, vital signs and clinical laboratory test results or other results judged not clinically significant by the investigator; • Body mass index (BMI)≥18 and ≤35 kg/m^2 inclusive. […]

D3 = target: T3, D3 (Homo sapiens, UniProt P35462); settings: healthy subjects, after two single dose levels; cited from earlier work
T3 construct: from tissue; host or cells: brain of healthy subjects in vivo (PET)
T3 sequence (P35462 whole entry): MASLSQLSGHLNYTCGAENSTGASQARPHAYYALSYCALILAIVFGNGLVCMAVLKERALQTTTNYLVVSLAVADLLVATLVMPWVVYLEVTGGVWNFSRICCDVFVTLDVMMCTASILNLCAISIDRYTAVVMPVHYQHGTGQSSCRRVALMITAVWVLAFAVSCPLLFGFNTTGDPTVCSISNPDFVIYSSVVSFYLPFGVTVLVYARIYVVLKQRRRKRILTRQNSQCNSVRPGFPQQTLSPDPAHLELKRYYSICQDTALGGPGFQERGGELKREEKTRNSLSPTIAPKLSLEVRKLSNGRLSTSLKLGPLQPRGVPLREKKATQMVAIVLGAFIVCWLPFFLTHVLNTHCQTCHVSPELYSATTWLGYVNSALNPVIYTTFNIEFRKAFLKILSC

D2 receptor = settings: healthy subjects, after two single dose levels; cited from earlier work
[4] = F17464 versus placebo, FAS population n = 67
[5] = F17464 versus placebo, NS subgroup n = 29
[6] = NS subgroup versus FAS population
[7] = NS subgroup versus FAS population, score points
[8] = baseline to end of treatment, FAS

T1 sequence (P14416 whole entry): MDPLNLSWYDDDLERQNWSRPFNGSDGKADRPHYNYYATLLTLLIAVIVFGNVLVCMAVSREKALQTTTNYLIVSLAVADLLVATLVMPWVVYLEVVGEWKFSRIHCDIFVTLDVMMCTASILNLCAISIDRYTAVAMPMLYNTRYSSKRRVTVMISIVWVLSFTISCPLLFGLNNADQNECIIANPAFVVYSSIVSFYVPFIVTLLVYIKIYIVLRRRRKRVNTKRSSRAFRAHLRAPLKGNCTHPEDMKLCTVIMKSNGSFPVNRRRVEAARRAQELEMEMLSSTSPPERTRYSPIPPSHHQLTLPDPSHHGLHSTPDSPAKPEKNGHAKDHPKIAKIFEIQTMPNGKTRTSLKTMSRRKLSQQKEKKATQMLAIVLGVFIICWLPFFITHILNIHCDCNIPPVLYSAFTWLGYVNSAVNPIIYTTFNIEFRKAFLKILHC

## CS(=O)(=O)Nc1cccc(N2CCN(CCCCc3coc4cc5c(cc4c3=O)OCO5)CC2)c1 [F17464, N-(3-{4-[4-(8-oxo-8H-[1,3]dioxolo[4,5-g]chromen-7-yl)-butyl]-piperazin-1-yl}-phenyl)-methanesulfonamide]
[1]; D2L versus D3
  affinity for dopamine D2L receptor, times weaker than D3: 71 times
[1]; [3H] spiperone binding
  Ki: 12.1 nM
[2]; D2S versus D3
  affinity for dopamine D2S receptor, times weaker than D3: 38 times
[2]; [3H] spiperone binding
  Ki: 6.5 nM
[3]; 20 mg bid, 6 weeks
  clinically relevant hepatic, metabolic or cardio-vascular disorder: no clinically relevant hepatic, metabolic (including clinically relevant weight gain) or cardio-vascular disorder
  overall incidence of treatment-emergent adverse events (TEAEs): 70.1%
[3]; [4]
  Treatment effect on change from baseline, PANSS general psychopathology [LSmean (SE)]: −3.6 (1.3) *
  Treatment effect on change from baseline, PANSS negative symptoms [LSmean (SE)]: −0.7 (0.6)^
  Treatment effect on change from baseline, PANSS positive symptoms [LSmean (SE)]: −1.9 (1.0) *
[3]; [5]
  Treatment effect on change from baseline, PANSS general psychopathology [LSmean (SE)]: −6.4 (2.0) *
  Treatment effect on change from baseline, PANSS negative symptoms [LSmean (SE)]: −2.7 (1.1) *
  Treatment effect on change from baseline, PANSS positive symptoms [LSmean (SE)]: −4.3 (1.6) *
  Treatment effect on change from baseline, PANSS total score [LSmean (SE)]: −13 (4.1) *
[3]; FAS population n = 67, Day 43
  PANSS general psychopathology, change from baseline [LSmean (SE)]: −6.6 (1.0) *
  PANSS negative symptoms, change from baseline [LSmean (SE)]: −1.7 (0.4)^
  PANSS positive symptoms, change from baseline [LSmean (SE)]: −6.3 (0.8) *
[3]; FAS, n = 67
  Discontinuation for Adverse Event, number of patients: 2
  Discontinuation for Adverse Event, percent of patients: (3.0%)
  Discontinuation for Lack Of Efficacy/Worsening of schizophrenia, number of patients: 11
  Discontinuation for Lack Of Efficacy/Worsening of schizophrenia, percent of patients: (16.4%)
[3]; From Day 22, FAS, LOCF
  reduction of PANSS total score versus placebo over time: statistically higher than in placebo group
[3]; NS subgroup n = 29, Day 43
  PANSS general psychopathology, change from baseline [LSmean (SE)]: −9.3 (1.5) *
  PANSS negative symptoms, change from baseline [LSmean (SE)]: −4.3 (0.8) *
  PANSS positive symptoms, change from baseline [LSmean (SE)]: −8.4 (1.2) *
  PANSS total score, adjusted change from baseline [LSmean (SE)]: −21.8 (2.9) *
[3]; [6]
  Difference of treatment effect, PANSS general psychopathology, percent: 78%
  Difference of treatment effect, PANSS negative symptoms, percent: 285%
  Difference of treatment effect, PANSS positive symptoms, percent: 126%
  Difference of treatment effect, PANSS total score, percent: 110%
[3]; [7]
  Difference of treatment effect, PANSS general psychopathology: 2.8
  Difference of treatment effect, PANSS negative symptoms: 2
  Difference of treatment effect, PANSS positive symptoms: 2.4
  Difference of treatment effect, PANSS total score: 6.8
[3]; [8]
  Response rate, PANSS total score reduction by 20%: 49.3%
  Response rate, PANSS total score reduction by 30%: 27.0%
[3]; compared to placebo group, from D21 up to Day 42
  Time to first sustained PANSS 20% or 30% response: Shorter
[3]; secondary criteria, FAS
  PANSS positive score and positive factor, defined by Marder, versus placebo: statistically significantly greater
D3
  D3 binding rate (PET): strong and long-lasting
D2 receptor
  binding rate to D2 receptor (PET): modest
